As a reminder, the IC50 is the concentration needed to halve the response being measured. What is called Ki is the dissociation constant of the complex between target and ligand, obtained from inhibition or displacement.

This note sets out measurements from ChEMBL document CHEMBL1909046, “DrugMatrix in vitro pharmacology data”.

Series [1] concerns the target T1, Cytochrome P450 3A4 (Homo sapiens, UniProt P08684). As to conditions: bti-tn-5b1-4. Further: in other assays of this panel Not Active means under 50% inhibition at 10 µM.
The target in series [2] is Cytochrome P450 2C19 (Homo sapiens, UniProt P33261). Further: in other assays of this panel Not Active means under 50% inhibition at 10 µM.
Cytochrome P450 2C19, sequence (P33261 whole entry): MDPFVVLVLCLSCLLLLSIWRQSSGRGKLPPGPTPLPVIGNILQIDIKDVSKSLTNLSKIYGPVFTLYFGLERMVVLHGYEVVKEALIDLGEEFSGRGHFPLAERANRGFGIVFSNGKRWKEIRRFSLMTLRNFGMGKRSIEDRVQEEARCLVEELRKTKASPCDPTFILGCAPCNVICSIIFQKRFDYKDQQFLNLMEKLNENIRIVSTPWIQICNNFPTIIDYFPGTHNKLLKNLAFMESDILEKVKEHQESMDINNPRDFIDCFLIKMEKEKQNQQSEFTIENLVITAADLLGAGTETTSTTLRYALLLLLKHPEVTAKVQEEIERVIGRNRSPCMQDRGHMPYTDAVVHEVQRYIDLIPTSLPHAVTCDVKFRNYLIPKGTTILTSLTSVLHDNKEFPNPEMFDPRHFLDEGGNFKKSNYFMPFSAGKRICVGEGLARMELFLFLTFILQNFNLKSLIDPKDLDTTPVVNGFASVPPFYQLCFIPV
For series [3], the target named is T2, Cytochrome P450 1A2 (Homo sapiens, UniProt P05177). Further: in other assays of this panel Not Active means under 50% inhibition at 10 µM.
T2 sequence (P05177 whole entry): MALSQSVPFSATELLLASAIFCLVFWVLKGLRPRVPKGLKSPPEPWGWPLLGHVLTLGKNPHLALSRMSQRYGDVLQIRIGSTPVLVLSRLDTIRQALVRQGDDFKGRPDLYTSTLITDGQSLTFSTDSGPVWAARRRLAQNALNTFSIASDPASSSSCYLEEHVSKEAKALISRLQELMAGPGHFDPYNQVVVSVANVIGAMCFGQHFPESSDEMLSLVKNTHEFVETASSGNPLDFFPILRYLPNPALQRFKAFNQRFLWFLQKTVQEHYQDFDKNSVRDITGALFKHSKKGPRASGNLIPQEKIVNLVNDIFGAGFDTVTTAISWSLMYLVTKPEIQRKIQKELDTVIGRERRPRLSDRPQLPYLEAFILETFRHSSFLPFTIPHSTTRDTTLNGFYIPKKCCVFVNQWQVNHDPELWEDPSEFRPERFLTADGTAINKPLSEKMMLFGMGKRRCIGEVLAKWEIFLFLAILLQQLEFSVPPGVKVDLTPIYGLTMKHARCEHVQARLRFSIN

In series [4] the target is T3, Glucocorticoid receptor (Homo sapiens, UniProt P04150). Further: in other assays of this panel Not Active means under 50% inhibition at 10 µM.
T3 sequence (P04150 whole entry): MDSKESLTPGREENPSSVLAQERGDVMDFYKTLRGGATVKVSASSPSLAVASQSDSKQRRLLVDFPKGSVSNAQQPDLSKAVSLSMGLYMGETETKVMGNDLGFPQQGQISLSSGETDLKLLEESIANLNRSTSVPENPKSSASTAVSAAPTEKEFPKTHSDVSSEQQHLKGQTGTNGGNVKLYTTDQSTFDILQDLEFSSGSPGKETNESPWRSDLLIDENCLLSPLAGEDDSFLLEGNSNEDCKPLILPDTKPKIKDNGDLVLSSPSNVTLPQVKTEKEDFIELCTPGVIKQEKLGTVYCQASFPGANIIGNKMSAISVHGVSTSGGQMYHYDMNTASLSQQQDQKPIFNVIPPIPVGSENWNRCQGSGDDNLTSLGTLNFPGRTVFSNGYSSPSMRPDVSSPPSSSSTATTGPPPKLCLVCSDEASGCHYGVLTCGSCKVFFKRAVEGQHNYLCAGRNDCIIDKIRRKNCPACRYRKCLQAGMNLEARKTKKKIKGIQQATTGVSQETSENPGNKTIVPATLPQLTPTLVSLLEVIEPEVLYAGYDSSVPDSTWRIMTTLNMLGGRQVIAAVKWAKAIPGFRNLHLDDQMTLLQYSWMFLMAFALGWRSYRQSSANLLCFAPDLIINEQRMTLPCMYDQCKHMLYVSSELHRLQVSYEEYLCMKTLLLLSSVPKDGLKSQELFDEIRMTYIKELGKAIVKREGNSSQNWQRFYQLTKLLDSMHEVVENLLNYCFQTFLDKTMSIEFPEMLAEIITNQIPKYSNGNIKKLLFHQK
Conditions: hela s3.

The target in series [5] is Voltage-gated inwardly rectifying potassium channel KCNH2 (Homo sapiens, UniProt Q12809). As to conditions: hek293. Further: in other assays of this panel Not Active means under 50% inhibition at 10 µM.
Voltage-gated inwardly rectifying potassium channel KCNH2, sequence (Q12809 whole entry): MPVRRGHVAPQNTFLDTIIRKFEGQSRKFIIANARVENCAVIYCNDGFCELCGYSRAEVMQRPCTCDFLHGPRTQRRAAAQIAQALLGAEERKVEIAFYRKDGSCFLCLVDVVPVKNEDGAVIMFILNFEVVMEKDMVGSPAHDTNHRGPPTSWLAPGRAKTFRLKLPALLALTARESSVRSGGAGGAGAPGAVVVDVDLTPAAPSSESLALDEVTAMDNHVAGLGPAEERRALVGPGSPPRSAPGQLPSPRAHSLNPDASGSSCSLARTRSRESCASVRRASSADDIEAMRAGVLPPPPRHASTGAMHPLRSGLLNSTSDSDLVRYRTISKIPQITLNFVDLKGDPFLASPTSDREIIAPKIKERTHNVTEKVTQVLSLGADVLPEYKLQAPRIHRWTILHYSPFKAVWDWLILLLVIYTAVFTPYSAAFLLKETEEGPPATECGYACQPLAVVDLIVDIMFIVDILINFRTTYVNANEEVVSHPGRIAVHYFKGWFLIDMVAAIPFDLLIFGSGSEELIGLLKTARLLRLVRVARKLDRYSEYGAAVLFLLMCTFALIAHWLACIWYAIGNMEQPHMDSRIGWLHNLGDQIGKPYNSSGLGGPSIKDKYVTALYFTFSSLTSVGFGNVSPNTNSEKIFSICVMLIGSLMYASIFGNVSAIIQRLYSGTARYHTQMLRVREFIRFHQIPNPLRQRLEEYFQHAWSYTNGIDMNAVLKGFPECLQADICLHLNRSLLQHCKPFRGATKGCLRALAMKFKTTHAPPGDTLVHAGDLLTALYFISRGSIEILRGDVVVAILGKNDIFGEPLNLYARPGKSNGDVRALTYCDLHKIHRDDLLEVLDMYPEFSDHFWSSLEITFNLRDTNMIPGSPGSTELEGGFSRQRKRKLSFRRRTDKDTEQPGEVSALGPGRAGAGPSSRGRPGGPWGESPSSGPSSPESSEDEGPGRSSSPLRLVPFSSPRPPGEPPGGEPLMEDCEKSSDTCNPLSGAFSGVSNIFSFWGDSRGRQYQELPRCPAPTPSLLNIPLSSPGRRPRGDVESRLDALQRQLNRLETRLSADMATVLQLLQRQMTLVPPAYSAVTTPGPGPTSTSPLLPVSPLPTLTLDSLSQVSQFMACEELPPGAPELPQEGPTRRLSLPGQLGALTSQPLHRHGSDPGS
Series [6] has as its target Cytochrome P450 2D6 (Homo sapiens, UniProt P10635). Further: in other assays of this panel Not Active means under 50% inhibition at 10 µM.
In series [7] the target is Estrogen receptor beta (Homo sapiens, UniProt Q92731). Conditions: sf9. Further: in other assays of this panel Not Active means under 50% inhibition at 10 µM.
Estrogen receptor beta, sequence (Q92731 whole entry): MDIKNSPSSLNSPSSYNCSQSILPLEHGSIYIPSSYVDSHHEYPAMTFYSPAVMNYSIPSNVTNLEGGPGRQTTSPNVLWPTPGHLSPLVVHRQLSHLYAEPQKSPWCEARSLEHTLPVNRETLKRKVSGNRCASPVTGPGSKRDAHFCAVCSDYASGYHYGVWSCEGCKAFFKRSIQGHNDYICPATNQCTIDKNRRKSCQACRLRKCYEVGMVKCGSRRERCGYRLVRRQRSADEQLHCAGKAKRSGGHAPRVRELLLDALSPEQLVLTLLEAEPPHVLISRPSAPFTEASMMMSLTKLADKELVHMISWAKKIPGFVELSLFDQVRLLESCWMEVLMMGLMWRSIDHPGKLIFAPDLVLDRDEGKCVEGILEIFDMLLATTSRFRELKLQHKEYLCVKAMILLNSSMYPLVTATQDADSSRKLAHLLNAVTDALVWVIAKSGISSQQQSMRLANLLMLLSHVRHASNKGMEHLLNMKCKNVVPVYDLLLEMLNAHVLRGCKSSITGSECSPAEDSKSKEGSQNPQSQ
In series [8] the target is Sodium-dependent noradrenaline transporter (Homo sapiens, UniProt P23975). Description: DRUGMATRIX: Norepinephrine Transporter radioligand binding (ligand: [125I] RTI-55). The format is cell membranes, MDCK, Membrane. Conditions: Not Active = under 50% inhibition at 10 µM; for Ki: read-out: Ki.
Sodium-dependent noradrenaline transporter, sequence (P23975 whole entry): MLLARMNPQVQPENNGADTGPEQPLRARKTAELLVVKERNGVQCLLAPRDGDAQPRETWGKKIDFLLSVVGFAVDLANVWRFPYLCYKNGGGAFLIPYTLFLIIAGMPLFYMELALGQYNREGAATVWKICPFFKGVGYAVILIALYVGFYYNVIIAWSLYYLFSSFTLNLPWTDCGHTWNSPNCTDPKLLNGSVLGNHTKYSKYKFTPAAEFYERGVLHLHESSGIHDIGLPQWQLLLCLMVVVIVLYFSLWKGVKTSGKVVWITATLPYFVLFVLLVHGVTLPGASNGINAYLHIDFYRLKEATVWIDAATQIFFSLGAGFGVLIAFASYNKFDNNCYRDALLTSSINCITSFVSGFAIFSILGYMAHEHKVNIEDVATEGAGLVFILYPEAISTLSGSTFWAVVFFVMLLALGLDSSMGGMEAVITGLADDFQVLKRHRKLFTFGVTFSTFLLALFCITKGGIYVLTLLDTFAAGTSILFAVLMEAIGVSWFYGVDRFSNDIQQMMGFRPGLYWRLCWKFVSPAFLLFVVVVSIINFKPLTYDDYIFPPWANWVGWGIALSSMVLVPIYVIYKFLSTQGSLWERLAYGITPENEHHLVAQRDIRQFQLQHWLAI
Series [9] concerns the target Cytochrome P450 2C9 (Homo sapiens, UniProt P11712). Further: in other assays of this panel Not Active means under 50% inhibition at 10 µM.
Series [10] deals with T4, Androgen receptor (Rattus norvegicus, UniProt P15207).
T4 sequence (P15207 whole entry): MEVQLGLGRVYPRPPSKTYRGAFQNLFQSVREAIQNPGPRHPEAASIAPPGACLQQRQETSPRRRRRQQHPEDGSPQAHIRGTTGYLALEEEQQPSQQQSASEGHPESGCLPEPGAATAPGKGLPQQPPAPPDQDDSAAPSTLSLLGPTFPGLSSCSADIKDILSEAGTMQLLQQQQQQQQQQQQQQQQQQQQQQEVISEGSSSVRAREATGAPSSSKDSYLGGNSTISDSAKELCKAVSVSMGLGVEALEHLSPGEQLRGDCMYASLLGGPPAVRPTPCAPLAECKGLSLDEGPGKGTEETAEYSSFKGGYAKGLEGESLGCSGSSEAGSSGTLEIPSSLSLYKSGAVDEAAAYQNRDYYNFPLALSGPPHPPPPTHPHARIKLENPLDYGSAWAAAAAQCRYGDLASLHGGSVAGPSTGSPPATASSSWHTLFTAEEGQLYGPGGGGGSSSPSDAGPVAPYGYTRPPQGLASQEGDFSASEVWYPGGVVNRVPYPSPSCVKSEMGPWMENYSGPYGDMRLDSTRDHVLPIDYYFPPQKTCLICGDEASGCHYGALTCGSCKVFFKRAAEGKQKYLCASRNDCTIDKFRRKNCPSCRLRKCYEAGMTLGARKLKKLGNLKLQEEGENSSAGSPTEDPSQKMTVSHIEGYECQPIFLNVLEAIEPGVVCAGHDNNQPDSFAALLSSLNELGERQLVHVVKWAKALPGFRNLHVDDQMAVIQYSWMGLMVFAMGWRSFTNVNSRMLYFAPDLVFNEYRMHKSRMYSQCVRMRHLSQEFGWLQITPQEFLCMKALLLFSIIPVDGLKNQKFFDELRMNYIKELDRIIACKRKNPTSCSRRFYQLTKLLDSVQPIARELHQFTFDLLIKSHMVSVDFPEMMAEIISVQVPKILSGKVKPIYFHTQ

Series [11] deals with T3, Glucocorticoid receptor. The series can be described thus: biochemical.
Series [12] deals with T1, Cytochrome P450 3A4.

Cytochrome P450 2C9, sequence (P11712 whole entry): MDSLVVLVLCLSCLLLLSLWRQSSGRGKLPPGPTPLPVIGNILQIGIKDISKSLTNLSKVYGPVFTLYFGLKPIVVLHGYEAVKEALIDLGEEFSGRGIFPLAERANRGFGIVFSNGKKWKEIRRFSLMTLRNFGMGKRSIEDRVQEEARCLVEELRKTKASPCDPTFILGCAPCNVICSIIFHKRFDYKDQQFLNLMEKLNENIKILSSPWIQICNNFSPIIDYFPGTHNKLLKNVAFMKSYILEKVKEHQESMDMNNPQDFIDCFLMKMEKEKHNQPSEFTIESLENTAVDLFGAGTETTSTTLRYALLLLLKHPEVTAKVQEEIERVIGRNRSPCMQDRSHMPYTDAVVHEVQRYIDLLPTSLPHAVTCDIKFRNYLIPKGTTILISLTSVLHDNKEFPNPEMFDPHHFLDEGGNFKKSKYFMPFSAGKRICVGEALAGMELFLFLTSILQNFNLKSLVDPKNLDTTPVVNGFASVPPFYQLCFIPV
Cytochrome P450 2D6, sequence (P10635 whole entry): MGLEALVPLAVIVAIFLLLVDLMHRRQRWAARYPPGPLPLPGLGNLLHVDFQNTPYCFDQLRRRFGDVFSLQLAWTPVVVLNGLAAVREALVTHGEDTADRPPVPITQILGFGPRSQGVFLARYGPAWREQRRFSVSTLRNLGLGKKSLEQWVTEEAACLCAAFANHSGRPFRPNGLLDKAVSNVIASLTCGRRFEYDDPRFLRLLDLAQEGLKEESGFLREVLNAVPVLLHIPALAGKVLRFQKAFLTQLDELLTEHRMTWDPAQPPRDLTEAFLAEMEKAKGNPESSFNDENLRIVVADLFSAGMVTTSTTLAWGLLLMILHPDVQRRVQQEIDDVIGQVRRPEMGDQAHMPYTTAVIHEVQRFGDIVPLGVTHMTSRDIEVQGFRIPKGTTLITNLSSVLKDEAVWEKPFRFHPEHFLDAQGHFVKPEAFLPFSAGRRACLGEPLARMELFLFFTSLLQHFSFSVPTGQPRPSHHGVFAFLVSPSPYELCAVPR
T1 sequence (P08684 whole entry): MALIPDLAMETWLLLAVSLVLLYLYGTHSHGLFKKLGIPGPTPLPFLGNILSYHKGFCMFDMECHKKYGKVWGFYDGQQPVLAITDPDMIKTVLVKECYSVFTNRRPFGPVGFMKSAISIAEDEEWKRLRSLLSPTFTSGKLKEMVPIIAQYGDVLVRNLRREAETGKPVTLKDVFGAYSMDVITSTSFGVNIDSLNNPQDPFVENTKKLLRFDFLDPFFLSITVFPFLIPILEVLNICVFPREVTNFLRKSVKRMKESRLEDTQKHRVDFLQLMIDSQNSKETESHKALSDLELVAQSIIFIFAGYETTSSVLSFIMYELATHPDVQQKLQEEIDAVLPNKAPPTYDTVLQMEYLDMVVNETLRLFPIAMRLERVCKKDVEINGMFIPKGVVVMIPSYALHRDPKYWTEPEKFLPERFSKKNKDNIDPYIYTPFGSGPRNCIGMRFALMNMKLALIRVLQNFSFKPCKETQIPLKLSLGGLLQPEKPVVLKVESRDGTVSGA

In the case of `CSc1ccc2c(c1)N(CCC1CCCCN1C)c1ccccc1S2` (centres undefined) [THIORIDAZINE], the half-maximal inhibitory concentration (IC50) result in [1] was “Not Active”; in [2], 6.38 µM; in series [3] it was 9.33 µM; in series [4], “Not Active”. In addition, the inhibition constant (Ki) entry in series [1] is on record as “Not Active”.
For `NNc1ccccc1` [PHENYLHYDRAZINE], the IC50 result in series [5] is “Not Active”; in series [6] it was 3 µM; in series [7] it was “Not Active”; in series [2] it was 5 µM; in series [8] (mdck), “Not Active”; in [3] it was 8 µM. Moreover, the 50% inhibitory concentration (IC50) in series [9] was 6 µM. Moreover, in series [5], the Ki result is “Not Active”.
Regarding IVERMECTIN, the IC50 entry in [1] was “Not Active”; in series [10], “Not Active”; in [5], “Not Active”; in series [7], “Not Active”; in series [8] (mdck, read-out: IC50), 3.95 µM; in series [4] it was “Not Active”. The inhibition constant (Ki) entry in [1] was “Not Active”; in series [10] it was “Not Active”; in [5], “Not Active”; in [7], “Not Active”; in series [8] (mdck) it was 3.91 µM; in series [4] it was “Not Active”.
With `c1ccc2[nH]c(-c3cscn3)nc2c1` [THIABENDAZOLE], the 50% inhibitory concentration (IC50) result in [10] is “Not Active”; in series [5] it was “Not Active”; in [7], “Not Active”; in [8] (mdck) it was “Not Active”; in series [3], 0.8 µM; in [4], “Not Active”. In addition, the Ki entry in [5] is reported as “Not Active”.
On to `Clc1ccccc1C(c1ccccc1)(c1ccccc1)n1ccnc1` [CLOTRIMAZOLE], for which the IC50 result in series [5] was “Not Active”; in [7], “Not Active”; in [11], 3.26 µM; in series [2], 0.016 µM; in series [8] (read-out: IC50) it was 7.94 µM; in series [9], 0.016 µM. The Ki entry is “Not Active” in series [5], 1.48 µM in series [11] and 7.87 µM in [8].
As to `COc1c(C)c2c(c(O)c1C/C=C(\C)CCC(=O)OCCN1CCOCC1)C(=O)OC2` [MYCOPHENOLATE MOFETIL], the IC50 result in [1], in [10], in series [5], in [7], in [8] (mdck) and in series [4] was “Not Active” in each case. The Ki entry in series [1] and in series [5] was “Not Active” each time.
As for `C[C@]12Cc3c[nH]nc3C[C@@H]1CC[C@@H]1[C@@H]2CC[C@@]2(C)[C@H]1CC[C@]2(C)O` [STANOZOLOL], the IC50 entry in series [1] was “Not Active”; in series [5] it was “Not Active”; in series [6] it was 9.27 µM; in series [2], 0.048 µM; in [8] (mdck), “Not Active”; in series [4], “Not Active”. The molecule also gave a half-inhibitory concentration (IC50) in series [9] of 1.13 µM. Also, the inhibitory constant (Ki) result in [1] and in [5] was “Not Active” each time.
Regarding `C=CC[C@@H]1/C=C(\C)C[C@H](C)C[C@H](OC)[C@H]2O[C@@](O)(C(=O)C(=O)N3CCCC[C@H]3C(=O)O[C@H](/C(C)=C/[C@@H]3CC[C@@H](O)[C@H](OC)C3)[C@H](C)[C@@H](O)CC1=O)[C@H](C)C[C@@H]2OC` [TACROLIMUS ANHYDROUS], the concentration for half-maximal inhibition (IC50) result was “Not Active” in [10]; “Not Active” in series [5]; “Not Active” in series [7]; 1 µM in series [12]; “Not Active” in series [8] (mdck); “Not Active” in series [4]. In addition, the Ki result in [5] was “Not Active”.
Regarding `CN(C)[C@@H]1C(O)=C(C(N)=O)C(=O)[C@@]2(O)C(O)=C3C(=O)c4c(O)cccc4[C@@](C)(O)[C@H]3C[C@@H]12` [TETRACYCLINE], the IC50 entry in series [1], in series [10], in series [5], in series [7], in series [8] (mdck) and in series [4] was “Not Active” each time. In addition, the inhibition constant (Ki) entry in series [1] and in series [5] was “Not Active” throughout.
For `CC(=O)S[C@@H]1CC2=CC(=O)CC[C@]2(C)[C@H]2CC[C@@]3(C)[C@@H](CC[C@@]34CCC(=O)O4)[C@H]12` [SPIRONOLACTONE], the concentration for half-maximal inhibition (IC50) result in series [1] is “Not Active”; in series [5] it was “Not Active”; in [7], “Not Active”; in series [11], 1.9 µM; in series [2], 3 µM; in series [8] (mdck), “Not Active”. Further, the Ki result in [1] is “Not Active”; in series [5], “Not Active”; in series [11], 0.865 µM.
As to `CC(CCc1ccccc1)NCC(O)c1ccc(O)c(C(N)=O)c1` (centres undefined) [LABETALOL], the concentration for half-maximal inhibition (IC50) entry in series [1] was “Not Active”; in series [5] it was “Not Active”; in series [6], 0.8 µM; in [7], “Not Active”; in series [8] (read-out: IC50) it was 3.35 µM; in series [4] it was “Not Active”. Also, the inhibition constant Ki entry in series [1] was “Not Active”; in series [5] it was “Not Active”; in [8], 3.33 µM.
On to `CN(N=O)C(=O)N[C@@H](C=O)[C@@H](O)[C@H](O)[C@H](O)CO` [STREPTOZOCIN], for which the half-maximal inhibitory concentration (IC50) entry in [1], in [10], in series [5], in series [7], in series [8] (mdck) and in series [4] was “Not Active” in each case. Besides, the Ki result in series [1] and in [5] was “Not Active” in each case.
